Measurements: paper PMC5318888, “SAMHD1 enhances nucleoside-analogue efficacy against HIV-1 in myeloid cells” (Scientific Reports, 2017)
pEC50: −log10 of the molar value.

Assays:
Type in all cases: cell-based
HIV-1-GFP [1] = experiment: microbe, parasite or virus in culture
Description: (§1) H9 and Jurkat cells (6 × 10^5 cells/mL) were treated with increasing concentrations of nucleoside analogues (0–200 μM; except CFB, 0–1.6 μM) and incubated for 4 h at 37 °C in 5% CO2. Cells were then infected with HIV-1-GFP by spinoculation at 800 × g for 90 min in the presence of 1 μg/mL polybrene, and further incubated at 37 °C in 5% CO2 for 72 h. Undifferentiated U937 and THP-1 (PMA^−) cells (6 × 10^5 cells/mL) were treated with increasing concentrations of nucleoside analogues (0–200 μM; except CFB, 0–1.6 μM) and incubated at 37 °C in 5% CO2 for 48 h. Cells were then infected with HIV-1-GFP by spinoculation at 800 × g for 90 min in the presence of 1 μg/mL polybrene, and further incubated at 37 °C in 5% CO2 for 72 h. Non-dividing U937 and THP-1 (PMA^+) cells (6 × 10^5 cells/mL) were differentiated by addition of 100 nM PMA (PMA^+) for 48 h and treated with increasing concentrations of nucleoside analogues as described above. Cells were then infected with HIV-1-GFP in the presence of 1 μg/mL polybrene and further incubated at 37 °C in 5% CO2 for 72 h. The percentage of GFP^+cells was determined by one-colour flow cytometry using a Fortessa X20 analyser (BD Biosciences) and the data analysed using the FlowJo software suite.
(§2) Non-ambiguous values were subjected to a replicate test to calculate confidence intervals of 95% (95% CI). CC50 and EC50 values were determined for at least two independent experiments for each nucleoside analogue and a selectivity index (SI) also calculated, (SI = CC50/EC50). EC50 values for each replicate were used to perform an unpaired two-tailed t-test to determine significant differences between U937 cells expressing SAMHD1 wt or HD206-7AA mutant and THP-1 cells expressing Vpx or untransduced cells. P values of <0.005 were considered statistically significant.

U937 cells = experiment: Cytotoxicity, live cells by flow cytometry, U937 cells (PMA−/PMA+); settings: human, 48 h
Description: (§3) H9, Jurkat and undifferentiated U937 and THP-1 (PMA^−) cells (6 × 10^5 cells/mL) were treated with increasing concentrations of nucleoside analogues (0–200 μM; except CFB, 0–1.6 μM) and incubated at 37 °C in 5% CO2 for 48 h. Medium was then replaced and cells were further incubated for 72 h. Non-dividing U937 and THP-1 (PMA^+) cells (6 × 10^5 cells/mL) were differentiated by addition of 100 nM phorbol-12-myristate-13-acetate (PMA^+) for 48 h and then treated with increasing concentrations of nucleoside analogues as described above. The percentage of live cells was determined by flow cytometry using Live/Dead fixable blue-fluorescent dyes (Invitrogen) and a Fortessa X20 analyser (BD Biosciences). Data were analysed using the FlowJo software suite.
as §2, with “The cytotoxic concentration of nucleoside analogue that inhibits cell viability by 50% (CC50) and the effective concentration of nucleoside analogue that inhibits infection of cells by 50% (EC50) were calculated for each independent experiment by non-linear regression using GraphPad Prism v6.00 for Windows (GraphPad Software, San Diego, CA). Non-ambiguous” for “Non-ambiguous”

[2] = as above; settings: human
Description: as §3
as §2, with “The cytotoxic concentration of nucleoside analogue that inhibits cell viability by 50% (CC50) and the effective concentration of nucleoside analogue that inhibits infection of cells by 50% (EC50) were calculated for each independent experiment by non-linear regression using GraphPad Prism v6.00 for Windows (GraphPad Software, San Diego, CA). Non-ambiguous” for “Non-ambiguous”

HIV-1-GFP [3] = experiment: Anti-HIV-1 activity in THP-1 cells with or without Vpx transduction
Description: (§4) Antiviral assays were further performed in monocytoid cells transduced with YFP-expressing VLPs containing WT SAMHD1, HD206-7AA or Vpx. Briefly, U937 cells (6 × 10^5 cells/mL) were transduced with WT SAMHD1-YFP or HD206-7AA-YFP VLPs by spinoculation at 800 × g for 90 min in the presence of 1 μg/mL polybrene. Similarly, THP-1 cells (6 × 10^5 cells/mL) were transduced with Vpx-YFP VLPs by spinoculation at 800 × g for 90 min in the presence of 1 μg/mL polybrene. Cells were incubated at 37 °C in 5% CO2 and after 72 h, PMA^+ cells (6 × 10^5 cells/mL) were treated with 100 nM PMA and PMA^− cells (7.5 × 10^4 cells/mL) were left untreated. Cells were then incubated at 37 °C in 5% CO2 for 48 h. Nucleoside analogues were added at increasing concentrations (0–200 μM; except CFB, 0–1.6 μM) and cells were further incubated for 48 h. PMA^− cells were then infected with HIV-1-GFP by spinoculation at 800 × g for 90 min in the presence of 1 μg/mL polybrene, PMA^+ cells were infected with HIV-1-GFP in the presence of 1 μg/mL polybrene only. Cells were incubated for 72 h at 37 °C in 5% CO2 and then analysed by two-colour flow cytometry using a Fortessa X20 analyser (BD Biosciences). Data were analysed using the FlowJo software suite.
as §2, with “The cytotoxic concentration of nucleoside analogue that inhibits cell viability by 50% (CC50) and the effective concentration of nucleoside analogue that inhibits infection of cells by 50% (EC50) were calculated for each independent experiment by non-linear regression using GraphPad Prism v6.00 for Windows (GraphPad Software, San Diego, CA). Non-ambiguous” for “Non-ambiguous”

[4] = Cytotoxicity, live cells by flow cytometry, H9 cells; settings: human
Description: as §3
as §2, with “The cytotoxic concentration of nucleoside analogue that inhibits cell viability by 50% (CC50) and the effective concentration of nucleoside analogue that inhibits infection of cells by 50% (EC50) were calculated for each independent experiment by non-linear regression using GraphPad Prism v6.00 for Windows (GraphPad Software, San Diego, CA). Non-ambiguous” for “Non-ambiguous”

in vitro = settings: human
Description: as §3
as §2, with “The cytotoxic concentration of nucleoside analogue that inhibits cell viability by 50% (CC50) and the effective concentration of nucleoside analogue that inhibits infection of cells by 50% (EC50) were calculated for each independent experiment by non-linear regression using GraphPad Prism v6.00 for Windows (GraphPad Software, San Diego, CA). Non-ambiguous” for “Non-ambiguous”

[5] = Cytotoxicity, live cells by flow cytometry, THP-1 cells (PMA−/PMA+); settings: human
Description: as §3
as §2, with “The cytotoxic concentration of nucleoside analogue that inhibits cell viability by 50% (CC50) and the effective concentration of nucleoside analogue that inhibits infection of cells by 50% (EC50) were calculated for each independent experiment by non-linear regression using GraphPad Prism v6.00 for Windows (GraphPad Software, San Diego, CA). Non-ambiguous” for “Non-ambiguous”

THP-1 cells = experiment: as above; settings: human, 48 h
Description: as §3
as §2, with “The cytotoxic concentration of nucleoside analogue that inhibits cell viability by 50% (CC50) and the effective concentration of nucleoside analogue that inhibits infection of cells by 50% (EC50) were calculated for each independent experiment by non-linear regression using GraphPad Prism v6.00 for Windows (GraphPad Software, San Diego, CA). Non-ambiguous” for “Non-ambiguous”

HIV-1-GFP [6] = experiment: Anti-HIV-1 activity in U937 cells transduced with wt SAMHD1 or HD206-7AA mutant
Description: as §4
as §2, with “The cytotoxic concentration of nucleoside analogue that inhibits cell viability by 50% (CC50) and the effective concentration of nucleoside analogue that inhibits infection of cells by 50% (EC50) were calculated for each independent experiment by non-linear regression using GraphPad Prism v6.00 for Windows (GraphPad Software, San Diego, CA). Non-ambiguous” for “Non-ambiguous”

[7] = Cytotoxicity, live cells by flow cytometry, Jurkat cells; settings: human
Description: as §3
as §2, with “The cytotoxic concentration of nucleoside analogue that inhibits cell viability by 50% (CC50) and the effective concentration of nucleoside analogue that inhibits infection of cells by 50% (EC50) were calculated for each independent experiment by non-linear regression using GraphPad Prism v6.00 for Windows (GraphPad Software, San Diego, CA). Non-ambiguous” for “Non-ambiguous”

HIV-1-GFP [8] = experiment: microbe, parasite or virus in culture; remark: listed apart in the source
Description: as §1, with “Cells” for “H9 and Jurkat cells (6 × 10^5 cells/mL) were treated with increasing concentrations of nucleoside analogues (0–200 μM; except CFB, 0–1.6 μM) and incubated for 4 h at 37 °C in 5% CO2. Cells”, “Undifferentiated U937 and THP-1 (PMA^−) cells (6 × 10^5 cells/mL) were treated with increasing concentrations of nucleoside analogues (0–200 μM; except CFB, 0–1.6 μM) and incubated at 37 °C in 5% CO2 for 48 h.” left out
as §2

[9] = Human immunodeficiency virus 1, THP-1, read-out: EC50 [95% CI], THP1 PMA+
[10] = Human immunodeficiency virus 1, THP-1, read-out: EC50 [95% CI], THP1 PMA−
[11] = Human immunodeficiency virus 1, U-937, read-out: EC50 [95% CI], U937 PMA+
[12] = Human immunodeficiency virus 1, U-937, read-out: EC50 [95% CI], U937 PMA−
[13] = Human immunodeficiency virus 1, THP-1, read-out: EC50 [95% CI], THP1 PMA+, Vpx+
[14] = Human immunodeficiency virus 1, THP-1, read-out: EC50 [95% CI], THP1 PMA+, Vpx−
[15] = Human immunodeficiency virus 1, THP-1, read-out: EC50 [95% CI], THP1 PMA−, Vpx+
[16] = Human immunodeficiency virus 1, THP-1, read-out: EC50 [95% CI], THP1 PMA−, Vpx−
[17] = Human immunodeficiency virus 1, U-937, read-out: EC50 [95% CI], U937 PMA+, HD206/7AA+ population
[18] = Human immunodeficiency virus 1, U-937, read-out: EC50 [95% CI], U937 PMA+, SAMHD1+ population
[19] = Human immunodeficiency virus 1, U-937, read-out: EC50 [95% CI], U937 PMA−, HD206/7AA+ population
[20] = Human immunodeficiency virus 1, U-937, read-out: EC50 [95% CI], U937 PMA−, SAMHD1+ population

Compound	pEC50 (HIV-1-GFP [1]; [9])	pEC50 (HIV-1-GFP [1]; [10])	pEC50 (HIV-1-GFP [1]; [11])	pEC50 (HIV-1-GFP [1]; [12])	CC50 (U937 cells) [nM]	pEC50 (HIV-1-GFP [3]; [13])	pEC50 (HIV-1-GFP [3]; [14])	pEC50 (HIV-1-GFP [3]; [15])	pEC50 (HIV-1-GFP [3]; [16])	CC50 at 48 h [4] [nM]	CC50 at 48 h (in vitro) [nM]	CC50 (THP-1 cells) [nM]	pEC50 (HIV-1-GFP [6]; [17])	pEC50 (HIV-1-GFP [6]; [18])	pEC50 (HIV-1-GFP [6]; [19])	pEC50 (HIV-1-GFP [6]; [20])	CC50 at 48 h [7] [nM]	fold increase of anti-HIV-1 activity in PMA+ over PMA− cells (HIV-1-GFP [1]; THP-1) [fold]	SI, selectivity index CC50/EC50 (HIV-1-GFP [1]; THP-1 PMA+)	SI, selectivity index CC50/EC50 (HIV-1-GFP [1]; THP-1 PMA−)	other results
O=c1[nH]cnc2c1ncn2[C@H]1CC[C@@H](CO)O1 [ddI, 2′,3′-dideoxyinosine]	7.03	5.69	5.61	4.34	> 200000	5.36	7.10	5.56	5.98	> 200000	> 200000	> 200000	5.06	6.96	4.26	4.63	> 200000	–	–	–	CC50 at 48 h ([2]; CC50): > 200000 nM; CC50 at 48 h ([5]; CC50): > 200000 nM
Nc1nc(Cl)nc2c1ncn2[C@@H]1O[C@H](CO)[C@@H](O)[C@@H]1F [CFB, 2-chloro-9-(2′-Deoxy-2′-fluoro-beta-D-arabinofuranosyl)adenine]	8.52	6.88	7.43	6.92	–	7.92	8.52	< 5.80	6.47	31	–	–	7.54	8.89	6.97	6.86	49	44	> 533	< 1	fold increase of anti-HIV-1 activity in PMA+ over PMA− cells (HIV-1-GFP [1]; U937): 3 fold; SI, selectivity index CC50/EC50 (HIV-1-GFP [1]; U937 PMA+): > 43; SI, selectivity index CC50/EC50 (HIV-1-GFP [1]; U937 PMA−): < 1; SI, selectivity index CC50/EC50 (HIV-1-GFP [8]; H9 cells): < 1; pEC50 (HIV-1-GFP [8]; Human immunodeficiency virus 1, H9, read-out: EC50 anti-HIV-1, H9 cells): 7.03; pEC50 (HIV-1-GFP [8]; Human immunodeficiency virus 1, Jurkat, read-out: EC50 anti-HIV-1, Jurkat cells): 6.18; SI, selectivity index CC50/EC50 (HIV-1-GFP [8]; Jurkat cells): < 1; Fold (EC50 Vpx+ vs Vpx−) (HIV-1-GFP [3]; THP1 PMA+): 4 fold; Fold (EC50 Vpx+ vs Vpx−) (HIV-1-GFP [3]; THP1 PMA−): >5 fold; Fold (EC50 HD206/7AA vs SAMHD1) (HIV-1-GFP [6]; U937 PMA+): 22 fold; Fold (EC50 HD206/7AA vs SAMHD1) (HIV-1-GFP [6]; U937 PMA−): 1 fold
Nc1nc(NC2CC2)c2ncn([C@H]3C=C[C@@H](CO)C3)c2n1 [ABC]	7.51	6.31	5.13	4.85	> 200000	5.15	7.42	6.21	6.34	> 200000	> 200000	> 200000	5.15	6.76	4.66	4.76	> 200000	16	> 6452	> 406	SI, selectivity index CC50/EC50 (HIV-1-GFP [1]; U937 PMA+): > 27; SI, selectivity index CC50/EC50 (HIV-1-GFP [1]; U937 PMA−): > 14; CC50 at 48 h [2]: > 200000 nM; Fold (EC50 Vpx+ vs Vpx−) (HIV-1-GFP [3]; THP1 PMA+): 187 fold; Fold (EC50 Vpx+ vs Vpx−) (HIV-1-GFP [3]; THP1 PMA−): 1 fold; CC50 at 48 h [5]: > 200000 nM; Fold (EC50 HD206/7AA vs SAMHD1) (HIV-1-GFP [6]; U937 PMA+): 41 fold; Fold (EC50 HD206/7AA vs SAMHD1) (HIV-1-GFP [6]; U937 PMA−): 1 fold
